The NIST ThermoML archive (doi:10.1021/je0601457)
Numbers after ± are expanded uncertainties.

Assay: xn = mol fraction of the nth substance listed

c1cnccn1 [pyrazine] + O=C=O
Fluid (supercritical or subcritical phases), Linear displacement technique
Conditions | mass density [kg/m3]
294.25 K, 5340 kPa, x1 = 0.308 | 1054 ± 42
294.25 K, 9480 kPa, x1 = 0.308 | 1070 ± 43
294.25 K, 12170 kPa, x1 = 0.308 | 1078 ± 43
295.55 K, 6450 kPa, x1 = 0.019 | 854 ± 36
295.55 K, 7000 kPa, x1 = 0.019 | 877 ± 36
295.55 K, 9070 kPa, x1 = 0.019 | 915 ± 37
295.65 K, 5520 kPa, x1 = 0.146 | 887 ± 36
295.65 K, 5970 kPa, x1 = 0.074 | 926 ± 39
295.65 K, 6100 kPa, x1 = 0.074 | 929 ± 37
295.65 K, 6310 kPa, x1 = 0.074 | 941 ± 38
295.65 K, 6380 kPa, x1 = 0.116 | 815 ± 33
295.65 K, 6520 kPa, x1 = 0.146 | 898 ± 36
295.65 K, 8210 kPa, x1 = 0.116 | 833 ± 33
295.65 K, 12790 kPa, x1 = 0.146 | 926 ± 37
296.25 K, 6140 kPa, x1 = 0.09 | 873 ± 35
296.25 K, 9830 kPa, x1 = 0.09 | 923 ± 37
298.25 K, 6590 kPa, x1 = 0.015 | 863 ± 36
298.25 K, 7520 kPa, x1 = 0.015 | 892 ± 36
298.25 K, 8790 kPa, x1 = 0.015 | 918 ± 37
299.45 K, 7760 kPa, x1 = 0.224 | 921 ± 37
300.75 K, 6520 kPa, x1 = 0.177 | 894 ± 36
300.75 K, 7070 kPa, x1 = 0.177 | 898 ± 40
300.75 K, 10790 kPa, x1 = 0.177 | 917 ± 37
303.65 K, 7070 kPa, x1 = 0.074 | 903 ± 36
303.65 K, 8720 kPa, x1 = 0.074 | 924 ± 37
303.75 K, 7480 kPa, x1 = 0.015 | 828 ± 33
303.75 K, 9410 kPa, x1 = 0.015 | 898 ± 39
303.75 K, 10240 kPa, x1 = 0.015 | 917 ± 37
303.75 K, 12450 kPa, x1 = 0.015 | 956 ± 47
304.15 K, 7690 kPa, x1 = 0.019 | 791 ± 35
304.15 K, 8380 kPa, x1 = 0.019 | 826 ± 35
304.15 K, 9210 kPa, x1 = 0.019 | 849 ± 37
304.15 K, 10520 kPa, x1 = 0.019 | 876 ± 35
304.15 K, 11900 kPa, x1 = 0.019 | 898 ± 37
304.25 K, 7340 kPa, x1 = 0.116 | 798 ± 32
304.25 K, 7550 kPa, x1 = 0.116 | 801 ± 32
304.25 K, 9550 kPa, x1 = 0.116 | 816 ± 34
304.95 K, 7280 kPa, x1 = 0.308 | 1036 ± 41
304.95 K, 9690 kPa, x1 = 0.308 | 1041 ± 42
304.95 K, 13620 kPa, x1 = 0.308 | 1052 ± 42
305.75 K, 6930 kPa, x1 = 0.146 | 839 ± 51
305.75 K, 7280 kPa, x1 = 0.146 | 863 ± 35
305.75 K, 11690 kPa, x1 = 0.146 | 886 ± 35
305.85 K, 7340 kPa, x1 = 0.09 | 858 ± 34
305.85 K, 10170 kPa, x1 = 0.09 | 884 ± 36
306.35 K, 6520 kPa, x1 = 0.397 | 1049 ± 42
306.35 K, 9690 kPa, x1 = 0.397 | 1061 ± 42
306.35 K, 13690 kPa, x1 = 0.397 | 1070 ± 43
308.25 K, 7550 kPa, x1 = 0.074 | 882 ± 35
308.25 K, 9480 kPa, x1 = 0.074 | 906 ± 36
308.65 K, 6030 kPa, x1 = 0.495 | 999 ± 40
308.65 K, 7000 kPa, x1 = 0.495 | 1001 ± 40
308.65 K, 9240 kPa, x1 = 0.495 | 1008 ± 40
309.45 K, 7070 kPa, x1 = 0.177 | 872 ± 35
309.45 K, 7620 kPa, x1 = 0.177 | 874 ± 35
309.45 K, 9760 kPa, x1 = 0.177 | 884 ± 36
312.05 K, 9480 kPa, x1 = 0.224 | 899 ± 36
312.05 K, 9760 kPa, x1 = 0.015 | 778 ± 35
312.05 K, 9930 kPa, x1 = 0.015 | 787 ± 35
312.05 K, 10410 kPa, x1 = 0.015 | 812 ± 34
312.05 K, 11100 kPa, x1 = 0.015 | 835 ± 35
312.05 K, 16790 kPa, x1 = 0.224 | 919 ± 37
312.75 K, 7760 kPa, x1 = 0.308 | 1023 ± 41
312.75 K, 11690 kPa, x1 = 0.308 | 1033 ± 41
312.75 K, 14830 kPa, x1 = 0.308 | 1043 ± 42
313.55 K, 8450 kPa, x1 = 0.116 | 773 ± 31
313.55 K, 8790 kPa, x1 = 0.116 | 778 ± 31
313.55 K, 10860 kPa, x1 = 0.116 | 791 ± 33
313.65 K, 9030 kPa, x1 = 0.019 | 687 ± 46
313.65 K, 9140 kPa, x1 = 0.019 | 712 ± 46
313.65 K, 9830 kPa, x1 = 0.019 | 761 ± 35
313.65 K, 10450 kPa, x1 = 0.019 | 792 ± 34
313.65 K, 10860 kPa, x1 = 0.019 | 809 ± 33
313.65 K, 12520 kPa, x1 = 0.019 | 850 ± 35
314.85 K, 8240 kPa, x1 = 0.146 | 833 ± 33
314.85 K, 8860 kPa, x1 = 0.146 | 839 ± 34
314.85 K, 14240 kPa, x1 = 0.146 | 869 ± 35
314.95 K, 7830 kPa, x1 = 0.397 | 1040 ± 42
314.95 K, 11280 kPa, x1 = 0.397 | 1048 ± 42
314.95 K, 15140 kPa, x1 = 0.397 | 1060 ± 42
315.85 K, 8660 kPa, x1 = 0.09 | 813 ± 33
318.95 K, 9210 kPa, x1 = 0.015 | 512 ± 25
318.95 K, 9280 kPa, x1 = 0.015 | 527 ± 25
318.95 K, 9480 kPa, x1 = 0.015 | 571 ± 26
320.15 K, 9140 kPa, x1 = 0.09 | 806 ± 38
320.15 K, 10790 kPa, x1 = 0.09 | 830 ± 33
320.95 K, 9660 kPa, x1 = 0.224 | 877 ± 35
320.95 K, 13000 kPa, x1 = 0.224 | 889 ± 36
321.55 K, 9280 kPa, x1 = 0.177 | 839 ± 34
321.55 K, 10520 kPa, x1 = 0.177 | 847 ± 34
321.55 K, 12520 kPa, x1 = 0.177 | 857 ± 34

linear displacement
Conditions | mass density [kg/m3]
294.25 K, Liquid, x1 = 0.308 | 1048 ± 43
295.55 K, Liquid, x1 = 0.019 | 842 ± 34
295.65 K, Liquid, x1 = 0.074 | 922 ± 37
295.65 K, Liquid, x1 = 0.116 | 809 ± 32
295.65 K, Liquid, x1 = 0.146 | 887 ± 36
296.25 K, Liquid, x1 = 0.09 | 864 ± 35
298.25 K, Liquid, x1 = 0.015 | 857 ± 34
299.45 K, Liquid, x1 = 0.224 | 910 ± 36
300.75 K, Liquid, x1 = 0.177 | 889 ± 36
303.65 K, Liquid, x1 = 0.074 | 900 ± 36
303.75 K, Liquid, x1 = 0.015 | 802 ± 32
304.15 K, Liquid, x1 = 0.019 | 776 ± 31
304.25 K, Liquid, x1 = 0.116 | 795 ± 32
304.95 K, Liquid, x1 = 0.308 | 1028 ± 41
305.75 K, Liquid, x1 = 0.146 | 860 ± 35
305.85 K, Liquid, x1 = 0.09 | 854 ± 34
306.35 K, Liquid, x1 = 0.397 | 1042 ± 42
308.25 K, Liquid, x1 = 0.074 | 878 ± 35
308.65 K, Liquid, x1 = 0.495 | 992 ± 40
309.45 K, Liquid, x1 = 0.177 | 870 ± 35
312.05 K, Liquid, x1 = 0.015 | 656 ± 26
312.05 K, Liquid, x1 = 0.224 | 887 ± 36
312.75 K, Liquid, x1 = 0.308 | 1019 ± 41
313.55 K, Liquid, x1 = 0.116 | 771 ± 31
313.65 K, Liquid, x1 = 0.019 | 679 ± 27
314.85 K, Liquid, x1 = 0.146 | 830 ± 34
314.95 K, Liquid, x1 = 0.397 | 1037 ± 42
315.85 K, Liquid, x1 = 0.09 | 810 ± 32
318.95 K, Gas, x1 = 0.015 | 452 ± 18
320.15 K, Liquid, x1 = 0.09 | 799 ± 32
320.95 K, Liquid, x1 = 0.224 | 870 ± 35
